Test results from patent publication US9832995B2, “Microbial composition” (Rohm and Haas Company, priority 2011, dated 2017).
Values joined by “and” are separate entries in the source; they are usually repeats but may differ in a detail not shown here. Identical values can stand only once.

Columns and labels:
[1] = system: Escherichia coli (E. coli - ATCC #10536); assay: Synergy test: high resolution MBC microtiter plate assay, 15 seconds contact, phosphate buffer containing 35% dipropylene glycol; type: cell-based; details: E. coli 10536; for SI (Synergy Index = Qa/QA + Qb/QB): for Qa and Qb, less than one = synergy; for MBC of the component acting alone (QA or QB; Qa with Qb = 0, or Qb with Qa = 0): complete kill in 15 seconds, phosphate buffer with 35% DPG
Excerpt: The concentrations and ratios may also vary under different test conditions or with different test methods.
One measure of synergy is the industrially accepted method described by Kull, F. C.; Eisman, P. C.; Sylwestrowicz, H. D. and Mayer, R. L., in Applied Microbiology 9:538-541 (1961), using the ratio determined by the formula: Qa/QA+Qb/QB=Synergy Index (“SI”) wherein: • QA=concentration of compound A (first component) in percent, acting alone, which produced an end point (MBC of Compound A). • Qa=concentration of compound A in percent, in the mixture, which produced an end point. • QB=concentration of compound B (second component) in percent, acting alone, which produced an end point (MBC of Compound B). • Qb=concentration of compound B in percent, in the mixture, which produced an end point.
When the sum Qa/QA and Qb/QB is greater than one, antagonism is indicated. […] The lower the SI, the greater is the synergy shown by that particular mixture. The minimum biocidal concentration (MBC) of a microbicide is the lowest concentration tested under a specific set of conditions that provides complete kill of the tested microorganisms.
Synergy tests were conducted using standard microliter plate assays with phosphate buffer containing 35% dipropylene glycol (DPG). In this method, a wide range of combinations of chemicals was tested by conducting high resolution MBC assays of Component (A) in the presence of various concentrations of Component (B). High resolution MBCs were determined by adding varying amounts of microbicide to one column of a microliter plate and doing subsequent […] dilutions using an automated liquid handling system to obtain a series of closely spaced endpoints. The MBC plate was inoculated one column at a time with the test microorganism. An aliquot of the inoculated well was transferred at 15 seconds to a plate containing a neutralising agent (D/E Neutralising Broth), mixed and held for 5 minutes before being transferred to a growth plate-containing trypticase soy broth (TSB). The TSB plate was incubated at 37° C. and read for the presence/absence of growth at 24 hours. The lowest level tested that provided complete kill (as evidenced by no growth in the microtitre plate) of the test organisms in 15 seconds is the minimum biocidal concentration (MBC).
The synergy of the combinations of the present invention was determined against a bacterium, Escherichia coli (E. coli—ATCC #10536), at a concentration of approximately 1×10^8 bacteria per mL. This microorganism is representative of natural contaminants in many consumer and industrial applications.

[2] = system: Escherichia coli (E. coli - ATCC #10536); assay: Automated assessment of efficacy in model surfactant solution (2.85% sodium cocoyl glycinate + 1.85% sodium lauroamphoacetate, pH 10), 15 seconds exposure; type: cell-based; details: for MBC (% w/v) / MBC: 2.85% sodium cocoyl glycinate + 1.85% sodium lauroamphoacetate solution at pH 10, E. coli, component alone; for No. of replicates showing growth (out of 4) / ΔOD 450 nm = OD450 (time = 16 hours) − OD450 (time zero), Mean / ΔOD 590 nm = OD590 (time = 16 hours) − OD590 (time zero), Mean: model surfactant solution, pH 10, 15 s exposure; for MBC: Escherichia coli, ATCC10536, 15 s
Protocol: In these examples, the efficacy of combinations of actives were tested in a surfactant cleansing formulation comprising 2.85% sodium cocoyl glycinate and 1.85% sodium, lauroamphoacetate.
This corresponds to a 50% in use dilution with water of a neat formulation containing 5.7% cocoyl glycinate and 3.7% sodium lauroamphoacetate during hand washing.
Solutions were prepared such that the concentrations of the surfactant components and test actives were 1.1× the final desired concentration in order to allow for dilution with the bacterial inoculum in the test. The solutions were manually adjusted to pH 10.0 by dropwise addition of sodium hydroxide solution, as measured with a pH meter at ambient temperature.
The efficacy of the combinations of the present invention was determined against Escherichia coli (E. coli—ATCC #10536), at a concentration of approximately 1×10^8 bacteria per mL.
Tests were conducted using standard microliter plate assays using an automated liquid handling system. 270 μl of the surfactant test solution was pipetted into each well of the microtitre plate and 30 μl of the bacterial suspension was then added. After exactly 15 seconds of bacterial exposure, a 30 μl volume of bacterial cells was withdrawn and transferred to 270 μl of D/E quench solution. After 5 minutes in the D/E quench, the optical density (OD) was measured for each plate in turn at two specific wavelengths (450 nm and 590 nm). These provide a dual check of antimicrobial, activity, as the OD450 reading is specific for the yellow colour of D/E quench when bacterial growth is observed, whereas OD590 is specific for the initial purple colour of the D/E quench which is retained if no bacterial growth is observed. After the time zero OD measurements, plates were then incubated at 37° C. overnight (16 hours) before repeating the OD measurements, Delta OD values were calculated by subtracting […] the initial value at time zero. Bacterial growth is observed as an increase in OD450 and a decrease in ΔOD590. To identify antibacterially efficacious systems (those preventing appreciable bacterial growth after incubation), the following threshold changes in OD readings have been adopted: if (1). OD450 increases by less than 0.2 absorbance unit on incubation and (2). OD590 decreases by less than 0.35 unit on incubation. Conversely, where OD450 increases by more than 0.2 AU and OD590 decreases by more than 0.35 unit after incubation, corresponding to a colour shift from purple to yellow, the test system allows bacterial growth and is not deemed efficacious. Four replicate measurements in the same plate have been made for each test system. The number of replicate wells showing either bacterial growth or no growth is also readily assessed by eye by following the colour change.

S. aureus 6538 = assay: Antimicrobial efficacy of actives against S. aureus in water; type: cell-based, Staphylococcus aureus
[3] = single active alone at 0.1% w/v
[4] = single active alone at 0.2% w/v
[5] = single active alone at 0.5% w/v
[6] = single active alone at 0.175% w/v

| Molecule | SI (Synergy Index = Qa/QA + Qb/QB) [1] | No. of replicates showing growth (out of 4) [2, 4] | ΔOD 450 nm = OD450 (time = 16 hours) − OD450 (time zero), Mean [2, 4] | ΔOD 590 nm = OD590 (time = 16 hours) − OD590 (time zero), Mean [2, 4] | No. of replicates showing growth (out of 4) ([2]; single active alone at […] w/v) | ΔOD 450 nm = OD450 (time = 16 hours) − OD450 (time zero), Mean ([2]; single active alone at […] w/v) | ΔOD 590 nm = OD590 (time = 16 hours) − OD590 (time zero), Mean ([2]; single active alone at […] w/v) | further results |
| --- | --- | --- | --- | --- | --- | --- | --- | --- |
| Oc1ccccc1C1CCCC1 [2-cyclopentylphenol] | 1.00 | – | – | – | – | – | – | – |
| Oc1ccccc1Cc1ccccc1 [2-hydroxydiphenylmethane] | 1.00 | 4 | −0.51 | 0.63 | 4 | −0.49 | 0.64 | MBC of the component acting alone (QA or QB; Qa with Qb = 0, or Qb with Qa = 0) [1]: 0.8 weight % and 0.6 weight % and 1.0 weight % and 0.5 weight %; MBC (% w/v) [2]: >0.2 % w/v; No. of replicates showing growth (out of 4) [2, 3]: 4; ΔOD 450 nm = OD450 (time = 16 hours) − OD450 (time zero), Mean [2, 3]: −0.51; ΔOD 590 nm = OD590 (time = 16 hours) − OD590 (time zero), Mean [2, 3]: 0.62 |
| C=C(C)C1CC=C(C)C(O)C1 (centres unmarked) [2-methyl-5-(prop-1-en-2-yl)cyclohex-2-enol] | 1.0 | – | – | – | 4 | – | – | No. of replicates showing growth (out of 4) [2, 5]: 0; ΔOD 450 nm = OD450 (time = 16 hours) − OD450 (time zero), Mean [2, 5]: 0.23; ΔOD 590 nm = OD590 (time = 16 hours) − OD590 (time zero), Mean [2, 5]: 0.20; Log Reduction (S. aureus 6538; […] carveol): 0.08 |
| C=C(C)C1CCC(C)C(O)C1 (centres unmarked) [2-methyl-5-(prop-1-en-2-yl)cyclohexanol] | 1.00 | 4 | −0.49 | 0.63 | 4 | −0.43 | 0.66 | – |
| Cc1ccc(C(C)C)c(O)c1O [3-isopropyl-6-methylbenzene-1,2-diol] | – | – | – | – | – | – | – | MBC [2]: > 2000 µg/mL |
| Cc1cc(O)c(C(C)C)cc1Cl [4-chloro-2-isopropyl-5-methylphenol, reference compound] | – | 4 | −0.51 | 0.60 | 4 | −0.49 | 0.59 | No. of replicates showing growth (out of 4) [2, 6]: 4; ΔOD 450 nm = OD450 (time = 16 hours) − OD450 (time zero), Mean [2, 6]: −0.49; ΔOD 590 nm = OD590 (time = 16 hours) − OD590 (time zero), Mean [2, 6]: 0.58 |
| Oc1ccc(C2CCCC2)cc1 [4-cyclopentylphenol] | 1.00 | – | – | – | – | – | – | – |
| Oc1ccc(Cc2ccccc2)cc1 [4-hydroxydiphenylmethane] | 1.00 | 4 | −0.52 | 0.61 | 4 | −0.55 | 0.54 | MBC of the component acting alone (QA or QB; Qa with Qb = 0, or Qb with Qa = 0) [1]: 1.0 weight % and 0.6 weight %; MBC (% w/v) [2]: >0.2 % w/v; No. of replicates showing growth (out of 4) [2, 3]: 4; ΔOD 450 nm = OD450 (time = 16 hours) − OD450 (time zero), Mean [2, 3]: −0.58; ΔOD 590 nm = OD590 (time = 16 hours) − OD590 (time zero), Mean [2, 3]: 0.52 |
| CC(C)(C)c1ccc(O)c(O)c1 [4-tert-butylbenzene-1,2-diol] | – | – | – | – | – | – | – | MBC [2]: > 2000 µg/mL |
| Oc1cccc2c1CCCC2 [5,6,7,8-tetrahydronaphthalen-1-ol] | – | – | – | – | – | – | – | MBC of the component acting alone (QA or QB; Qa with Qb = 0, or Qb with Qa = 0) [1]: 0.6 weight % |
| C=C(C)[C@@H]1CC[C@@H](C)C[C@H]1O [(1R,2S,5R)-5-methyl-2-(prop-1-en-2-yl)cyclohexanol] | 1.00 | – | – | – | – | – | – | – |
| C=C(C)C1CCC(C)CC1O (centres unmarked) [Isopulegol, 5-methyl-2-(prop-1-en-2-yl)cyclohexanol] | – | – | – | – | 4 | – | 0.64 | ΔOD 450 nm = OD450 (time = 16 hours) − OD450 (time zero), Mean [2, 5]: −0.09 |
| cyclopentyl phenol | – | – | – | – | – | – | – | Log Reduction (S. aureus 6538; 0.05% cyclopentyl phenol): 1.9 |
